*1 amine or outer side, *2 acyl side, *3 side chain or, on linkers, in order; H or OH if unused. Where a SMILES comes first, the peptide text is derived from it. Bridges are numbered along the chain shown (N, C = ends). [ ]: non-standard residue; d: D form. The star is where a group is joined. ξ: configuration not given here. Phe(4-CONH2) = NC(=O)c1ccc(C[C@H](N)C(=O)O)cc1; Phe(4-COOH) = N[C@@H](Cc1ccc(C(=O)O)cc1)C(=O)O; Bip = N[C@@H](Cc1ccc(-c2ccccc2)cc1)C(=O)O; Phe(3-Me) = Cc1cccc(C[C@H](N)C(=O)O)c1; Phe(4-Me) = Cc1ccc(C[C@H](N)C(=O)O)cc1; Ethylenediamine = C(CN[*:2])N[*:1]; Val(3-OH) = CC(C)(O)[C@H](N)C(=O)O; 4Pal = N[C@@H](Cc1ccncc1)C(=O)O; 3Thi = N[C@@H](Cc1ccsc1)C(=O)O; Cha = N[C@@H](CC1CCCCC1)C(=O)O; Ile(3ξ) = CCC(C)[C@H](N)C(=O)O; Thr(3ξ) = CC(O)[C@H](N)C(=O)O; Carboxymethyl = O=C(O)C*; Orn = NCCC[C@H](N)C(=O)O; Dab = NCC[C@H](N)C(=O)O; Dap = NC[C@H](N)C(=O)O

The target of this assay is T1, human PD-1 / PD-L1-Ig binding on Jurkat cell line over-expressing human PD-1 (Jurkat-PD-1) (Homo sapiens, UniProt Q15116).
T1 construct: expressed in transfected cells; host or cells: Jurkat
T1 sequence (Q15116 25-288): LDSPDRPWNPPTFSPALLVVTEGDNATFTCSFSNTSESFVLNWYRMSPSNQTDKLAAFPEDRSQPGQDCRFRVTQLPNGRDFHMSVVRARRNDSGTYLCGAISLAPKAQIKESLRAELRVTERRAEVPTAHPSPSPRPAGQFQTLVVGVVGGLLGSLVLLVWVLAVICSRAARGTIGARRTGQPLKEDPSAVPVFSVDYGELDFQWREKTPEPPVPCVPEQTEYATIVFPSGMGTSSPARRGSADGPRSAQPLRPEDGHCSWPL
Briefly: Jurkat-PD-1 Cell Binding High-Content Screening Assay (CBA). Type of assay: cell-based. To be noted: Jurkat-PD-1 cells, PE-labeled PD-L1-Ig 20 nM final; read-out: Jurkat HPD1_PDL1 IC50. Summed up:
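Cell-bound PE-labeled PD-L1-Ig (20 nM final, 1 h) measured by high-content imaging after fixation and Hoechst 33342 counterstain. Compound was applied first for 2 h at 37° C. to Jurkat cells over-expressing human PD-1 in DMEM with 10% FCS.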
One may read the IC50 as the concentration that inhibits the measured activity by half. With `Cc1cccc(C[C@@H]2NC(=O)[C@H](CC(=O)O)NC(=O)[C@H](Cc3ccc(C(=O)O)cc3)NC(=O)[C@H](Cc3ccsc3)NC(=O)CSC[C@@H](C(=O)N[C@@H](CCN)C(N)=O)NC(=O)[C@H](CO)NC(=O)[C@H](C(C)(C)O)NC(=O)[C@H](CC3CCCCC3)NC(=O)[C@H](CCN)NC(=O)[C@@H](CC(C)C)NC(=O)[C@H](CCCN)NC(=O)[C@H](Cc3ccc(C(=O)O)cc3)NC(=O)[C@H](Cc3ccc(-c4ccccc4)cc3)NC(=O)[C@H](Cc3ccc(OCC(=O)O)cc3)NC2=O)c1` [Compound 2660] ({CH2CO}-[3Thi][Phe(4-COOH)]D[Phe(3-Me)]Y(Carboxymethyl)[Bip][Phe(4-COOH)][Orn][dL][Dab][Cha][Val(3-OH)]SC[Dab]-NH2; thioether N-14), the IC50 was 3.9 nM.

Consider `Cc1cccc(C[C@@H]2NC(=O)[C@H](CC(=O)O)NC(=O)[C@H](Cc3ccc(C(=O)O)cc3)NC(=O)[C@H](Cc3ccncc3)NC(=O)CSC[C@@H](C(=O)N[C@@H](CCN)C(N)=O)NC(=O)[C@H](CO)NC(=O)[C@H](C(C)(C)O)NC(=O)[C@H](CC3CCCCC3)NC(=O)[C@H](CCN)NC(=O)[C@@H](CC(C)C)NC(=O)[C@H](CCCN)NC(=O)[C@H](Cc3ccc(C(=O)O)cc3)NC(=O)[C@H](Cc3ccc(-c4ccccc4)cc3)NC(=O)[C@H](Cc3ccc(OCC(=O)O)cc3)NC2=O)c1` [Compound 2661] ({CH2CO}-[4Pal][Phe(4-COOH)]D[Phe(3-Me)]Y(Carboxymethyl)[Bip][Phe(4-COOH)][Orn][dL][Dab][Cha][Val(3-OH)]SC[Dab]-NH2; thioether N-14), for which the IC50 was 201 nM. With `CCC(C)[C@@H]1NC(=O)[C@H](Cc2ccc(-c3ccccc3)cc2)NC(=O)[C@H](C(C)C)NC(=O)[C@H](Cc2c[nH]c3ccccc23)NC(=O)[C@H](CC(=O)O)NC(=O)[C@H](Cc2ccc(OCC(=O)O)cc2)NC(=O)[C@H](Cc2cc[nH]c2)NC(=O)CSC[C@@H](C(=O)N[C@H](C)C(N)=O)NC(=O)[C@H](C(C)O)NC(=O)[C@H](C(C)(C)O)NC(=O)[C@H](CC2CCCCC2)NC(=O)[C@H](CCN)NC(=O)[C@@H](CC(C)C)NC(=O)[C@H](CCCN)NC1=O` (stereo partly drawn) [Compound 2662] the figure was 8.3 nM. Consider `Cc1cccc(C[C@@H]2NC(=O)[C@H](CC(=O)O)NC(=O)[C@H](Cc3ccc(OCC(=O)O)cc3)NC(=O)[C@H](C(C)O)NC(=O)CSC[C@@H](C(=O)N[C@@H](CO)C(=O)NCCN)NC(=O)[C@H](C(C)O)NC(=O)[C@H](C(C)(C)O)NC(=O)[C@H](CC3CCCCC3)NC(=O)[C@H](CCN)NC(=O)[C@@H](CC(C)C)NC(=O)[C@H](CCCN)NC(=O)[C@H](Cc3ccc(O)cc3)NC(=O)[C@H](Cc3ccc(-c4ccccc4)cc3)NC(=O)[C@H](Cc3ccc(C(N)=O)cc3)NC2=O)c1` (stereo partly drawn) [Compound 2663] ({CH2CO}-[Thr(3ξ)]Y(Carboxymethyl)D[Phe(3-Me)][Phe(4-CONH2)][Bip]Y[Orn][dL][Dab][Cha][Val(3-OH)][Thr(3ξ)]CS-Ethylenediamine; thioether N-14), for which the IC50 amounted to 11.6 nM. With `Cc1cccc(C[C@@H]2NC(=O)[C@H](CC(=O)O)NC(=O)[C@H](Cc3ccc(OCC(=O)O)cc3)NC(=O)[C@H](C(C)O)NC(=O)CSC[C@@H](C(=O)N[C@@H](CN)C(=O)NCCN)NC(=O)[C@H](C(C)O)NC(=O)[C@H](C(C)(C)O)NC(=O)[C@H](CC3CCCCC3)NC(=O)[C@H](CCN)NC(=O)[C@@H](CC(C)C)NC(=O)[C@H](CCCN)NC(=O)[C@H](Cc3ccc(O)cc3)NC(=O)[C@H](Cc3ccc(-c4ccccc4)cc3)NC(=O)[C@H](Cc3ccc(C(N)=O)cc3)NC2=O)c1` (stereo partly drawn) [Compound 2664] ({CH2CO}-[Thr(3ξ)]Y(Carboxymethyl)D[Phe(3-Me)][Phe(4-CONH2)][Bip]Y[Orn][dL][Dab][Cha][Val(3-OH)][Thr(3ξ)]C[Dap]-Ethylenediamine; thioether N-14) the figure was 15.2 nM.

In the case of `Cc1cccc(C[C@@H]2NC(=O)[C@H](CC(=O)O)NC(=O)[C@H](Cc3ccc(C(=O)O)cc3)NC(=O)[C@H](C(C)O)NC(=O)CSC[C@@H](C(=O)N[C@@H](CCN)C(N)=O)NC(=O)[C@H](CO)NC(=O)[C@H](C(C)(C)O)NC(=O)[C@H](CC3CCCCC3)NC(=O)[C@H](CCN)NC(=O)[C@@H](CC(C)C)NC(=O)[C@H](CCCN)NC(=O)[C@H](Cc3ccc(C(=O)O)cc3)NC(=O)[C@H](Cc3ccc(-c4ccccc4)cc3)NC(=O)[C@H](Cc3ccc(C(=O)O)cc3)NC2=O)c1` (stereo partly drawn) [Compound 2665] ({CH2CO}-[Thr(3ξ)][Phe(4-COOH)]D[Phe(3-Me)][Phe(4-COOH)][Bip][Phe(4-COOH)][Orn][dL][Dab][Cha][Val(3-OH)]SC[Dab]-NH2; thioether N-14), the IC50 came out at 3.4 nM. Under `CCC(C)[C@@H]1NC(=O)[C@H](Cc2ccc(-c3ccccc3)cc2)NC(=O)[C@H](Cc2ccc(C(=O)O)cc2)NC(=O)[C@H](Cc2cccc(C)c2)NC(=O)[C@H](CC(=O)O)NC(=O)[C@H](Cc2ccc(C(=O)O)cc2)NC(=O)[C@H](Cc2ccncc2)NC(=O)CSC[C@@H](C(=O)N[C@H](C)C(N)=O)NC(=O)[C@H](CCC(=O)O)NC(=O)[C@H](C(C)(C)O)NC(=O)[C@H](CC2CCCCC2)NC(=O)[C@H](CCN)NC(=O)[C@@H](CC(C)C)NC(=O)[C@H](Cc2cnc[nH]2)NC1=O` (stereo partly drawn) [Compound 2666] ({CH2CO}-[4Pal][Phe(4-COOH)]D[Phe(3-Me)][Phe(4-COOH)][Bip][Ile(3ξ)]H[dL][Dab][Cha][Val(3-OH)]EC[dA]-NH2; thioether N-14) stands 101 nM.

Take `Cc1ccc(C[C@@H]2NC(=O)[C@H](C(C)O)NC(=O)CSC[C@@H](C(=O)N[C@@H](CCN)C(N)=O)NC(=O)[C@H](CO)NC(=O)[C@H](C(C)(C)O)NC(=O)[C@H](CC3CCCCC3)NC(=O)[C@H](CCN)NC(=O)[C@@H](CC(C)C)NC(=O)[C@H](CCCN)NC(=O)[C@H](Cc3ccc(OCC(=O)O)cc3)NC(=O)[C@H](Cc3ccc(-c4ccccc4)cc3)NC(=O)[C@H](Cc3ccc(OCC(=O)O)cc3)NC(=O)[C@H](Cc3cccc(C)c3)NC(=O)[C@H](CC(=O)O)NC2=O)cc1` (stereo partly drawn) [Compound 2667] ({CH2CO}-[Thr(3ξ)][Phe(4-Me)]D[Phe(3-Me)]Y(Carboxymethyl)[Bip]Y(Carboxymethyl)[Orn][dL][Dab][Cha][Val(3-OH)]SC[Dab]-NH2; thioether N-14): the IC50 amounted to 11.4 nM.

Consider `Cc1ccc(C[C@@H]2NC(=O)[C@H](C(C)O)NC(=O)CSC[C@@H](C(=O)N[C@@H](CCN)C(N)=O)NC(=O)[C@H](Cc3c[nH]cn3)NC(=O)[C@H](C(C)(C)O)NC(=O)[C@H](CC3CCCCC3)NC(=O)[C@H](CCN)NC(=O)[C@@H](CC(C)C)NC(=O)[C@H](CCCN)NC(=O)[C@H](Cc3ccc(OCC(=O)O)cc3)NC(=O)[C@H](Cc3ccc(-c4ccccc4)cc3)NC(=O)[C@H](Cc3ccc(OCC(=O)O)cc3)NC(=O)[C@H](Cc3cccc(C)c3)NC(=O)[C@H](CC(=O)O)NC2=O)cc1` (stereo partly drawn) [Compound 2671] ({CH2CO}-[Thr(3ξ)][Phe(4-Me)]D[Phe(3-Me)]Y(Carboxymethyl)[Bip]Y(Carboxymethyl)[Orn][dL][Dab][Cha][Val(3-OH)]HC[Dab]-NH2; thioether N-14), for which the IC50 turned out to be 9.2 nM.

The values are drawn from patent US20250163104A1, “MACROCYCLIC IMMUNOMODULATORS” (priority 2021, published 2025).
